Results reported in PubChem BioAssay (NCI).
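Five concentrations, 48 hours, 96-well plates. Abbreviation: GI50, concentration required for 50% inhibition of growth. TGI: concentration producing complete growth inhibition.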

Experiments:
Assay in all cases: NCI tumour cell line growth inhibition, 48 h; in the data active means GI50 below about 0.43 µM; inactive means the rest
HOP-62 NSCLC = test system: HOP-62 NSCLC
CCRF-CEM leukemia = test system: CCRF-CEM leukemia
HT29 colon = test system: HT29 colon
OVCAR-8 ovarian = test system: OVCAR-8 ovarian
SK-OV-3 ovarian = test system: SK-OV-3 ovarian
K-562 leukemia = test system: K-562 leukemia
SN12C renal = test system: SN12C renal
UACC-257 melanoma = test system: UACC-257 melanoma
DMS 273 small cell lung = test system: DMS 273 small cell lung
M14 melanoma = test system: M14 melanoma
IGROV1 ovarian = test system: IGROV1 ovarian
MALME-3M melanoma = test system: MALME-3M melanoma
OVCAR-3 ovarian = test system: OVCAR-3 ovarian
SNB-19 CNS = test system: SNB-19 CNS
NCI-H460 lung = test system: NCI-H460 lung
HL-60(TB) leukemia = test system: HL-60(TB) leukemia
TK-10 renal = test system: TK-10 renal
RPMI-8226 leukemia = test system: RPMI-8226 leukemia
KM20L2 colon = test system: KM20L2 colon
DLD-1 colon = test system: DLD-1 colon
OVCAR-4 ovarian = test system: OVCAR-4 ovarian
NCI-H522 lung = test system: NCI-H522 lung
MOLT-4 leukemia = test system: MOLT-4 leukemia
COLO 205 colon = test system: COLO 205 colon
A498 renal = test system: A498 renal
U251 CNS = test system: U251 CNS
SF-295 CNS = test system: SF-295 CNS
SK-MEL-28 melanoma = test system: SK-MEL-28 melanoma
786-0 renal = test system: 786-0 renal
HCT-116 colon = test system: HCT-116 colon
ACHN renal = test system: ACHN renal
SF-268 CNS = test system: SF-268 CNS
LOX IMVI melanoma = test system: LOX IMVI melanoma
SW-620 colon = test system: SW-620 colon
CAKI-1 renal = test system: CAKI-1 renal
SF-539 CNS = test system: SF-539 CNS
HOP-92 NSCLC = test system: HOP-92 NSCLC
SK-MEL-5 melanoma = test system: SK-MEL-5 melanoma
UACC-62 melanoma = test system: UACC-62 melanoma
A549 NSCLC = test system: A549 NSCLC
KM12 colon = test system: KM12 colon
HOP-18 NSCLC = test system: HOP-18 NSCLC
SNB-75 CNS = test system: SNB-75 CNS
UO-31 renal = test system: UO-31 renal
NCI-H23 lung = test system: NCI-H23 lung

CC(=O)[CH-]C(=O)c1ccccc1.CC(=O)[CH-]C(=O)c1ccccc1.CC12CC3(C)CC(C)(C1)CC([O-])(C2)C3.CC[O-].[Ti+4]
53.3 µM: TGI (HOP-62 NSCLC) | TGI (OVCAR-4 ovarian)
27.9 µM: TGI (U251 CNS)
38.5 µM: TGI (SF-539 CNS)
50.6 µM: TGI (HCT-116 colon)
47 µM: TGI (MALME-3M melanoma)
45.4 µM: TGI (SF-268 CNS)
76.1 µM: TGI (UACC-257 melanoma)
44.5 µM: TGI (A498 renal)
78.6 µM: TGI (DLD-1 colon)
64.4 µM: TGI (SK-MEL-5 melanoma)
95.5 µM: TGI (RPMI-8226 leukemia)
31.1 µM: TGI (LOX IMVI melanoma)
35.2 µM: TGI (KM12 colon)
44.6 µM: TGI (NCI-H522 lung)
40.2 µM: TGI (COLO 205 colon)
32.8 µM: TGI (M14 melanoma)
34.4 µM: TGI (NCI-H23 lung)
38.2 µM: TGI (SK-MEL-28 melanoma)
46 µM: TGI (NCI-H460 lung)
55.3 µM: TGI (HOP-92 NSCLC)
29.4 µM: TGI (SNB-75 CNS)
inactive: GI50 (HOP-62 NSCLC) 22.3 µM | GI50 (CCRF-CEM leukemia) 28.7 µM | GI50 (HT29 colon) 27 µM | GI50 (OVCAR-8 ovarian) 27.7 µM | GI50 (SK-OV-3 ovarian) 23.1 µM | GI50 (K-562 leukemia) 34.4 µM | GI50 (SN12C renal) 43.5 µM | GI50 (UACC-257 melanoma) 27.9 µM | GI50 (DMS 273 small cell lung) 33.4 µM | GI50 (M14 melanoma) 16.9 µM | GI50 (IGROV1 ovarian) 40.9 µM | GI50 (MALME-3M melanoma) 17.5 µM | GI50 (OVCAR-3 ovarian) 25.6 µM | GI50 (SNB-19 CNS) 20.9 µM | GI50 (NCI-H460 lung) 16.8 µM | GI50 (HL-60(TB) leukemia) 27.8 µM | GI50 (TK-10 renal) 26.7 µM | GI50 (RPMI-8226 leukemia) 8.54 µM | GI50 (KM20L2 colon) 35.2 µM | GI50 (DLD-1 colon) 17 µM | GI50 (OVCAR-4 ovarian) 17.9 µM | GI50 (NCI-H522 lung) 21.2 µM | GI50 (MOLT-4 leukemia) 28.9 µM | GI50 (COLO 205 colon) 19.4 µM | GI50 (A498 renal) 21.3 µM | GI50 (U251 CNS) 13.5 µM | GI50 (SF-295 CNS) 33.4 µM | GI50 (SK-MEL-28 melanoma) 17 µM | GI50 (786-0 renal) 29.3 µM | GI50 (HCT-116 colon) 18.8 µM | GI50 (ACHN renal) 38.7 µM | GI50 (SF-268 CNS) 18.6 µM | GI50 (LOX IMVI melanoma) 13.2 µM | GI50 (SW-620 colon) 32.4 µM | GI50 (CAKI-1 renal) 42.9 µM | GI50 (SF-539 CNS) 17.5 µM | GI50 (HOP-92 NSCLC) 19.1 µM | GI50 (SK-MEL-5 melanoma) 30.8 µM | GI50 (UACC-62 melanoma) 18.5 µM | GI50 (A549 NSCLC) 29.5 µM | GI50 (KM12 colon) 18.3 µM | GI50 (HOP-18 NSCLC) 37.4 µM | GI50 (SNB-75 CNS) 14.3 µM | GI50 (UO-31 renal) 16 µM | GI50 (NCI-H23 lung) 18.1 µM
57.5 µM: TGI (UO-31 renal)
45.2 µM: TGI (SNB-19 CNS) | TGI (UACC-62 melanoma)
> 100 µM: TGI (CCRF-CEM leukemia) | TGI (HT29 colon) | TGI (OVCAR-8 ovarian) | TGI (SK-OV-3 ovarian) | TGI (K-562 leukemia) | TGI (SN12C renal) | TGI (DMS 273 small cell lung) | TGI (IGROV1 ovarian) | TGI (OVCAR-3 ovarian) | TGI (HL-60(TB) leukemia) | TGI (KM20L2 colon) | TGI (MOLT-4 leukemia) | TGI (SF-295 CNS) | TGI (786-0 renal) | TGI (ACHN renal) | TGI (SW-620 colon) | TGI (CAKI-1 renal) | TGI (A549 NSCLC) | TGI (HOP-18 NSCLC)
62.1 µM: TGI (TK-10 renal)
